Measurements reported in patent US20140093884A1, “Process for Identifying Novel Anti-Inflammatory Molecules with Reduced Direct Transrepression of Genes Induced by Glucocorticoids” (UNIVERSITE DE STRASBOURG, priority 2011, published 2014).

System: TSLP
Test: TSLP transcript levels in mouse ear epidermis after topical treatment (Q-RT-PCR)
Format: in vivo
Excerpt: Mice. […] Real time PCR. Total RNA was reverse transcribed using hexamers, followed by Q-PCR, as reported (Li et al., 2005). The GC agonist fluocinolone acetonide (FA) was applied to ears of mice concomitantly treated with the “low-calcemic” Vitamin D3 (VitD3) analog MC903 (Calcipotriol; hereafter called MC) to trigger TSLP expression (Li et al., 2006). […] As expected, the expression of the GC-inducible GPX3 (glutathione peroxidase 3) gene which harbours a (+)GRE (Tuckermann et al., 1999) was enhanced by FA (FIG. 10) and inhibited by RU co-treatment, while FA or RU had no effect on MC-dependent expression of the CYP24A1 gene (a VitD3 target) (FIG. 10). […] Although the basal TSLP level was similar in vehicle-treated WT and GR^ep−/− mice, FA blocked MC-induced TSLP expression in WT, but not in GR^ep−/− mice (not shown).

C=C1/C(=C\C=C2/CCC[C@]3(C)[C@@H]([C@H](C)/C=C/[C@@H](O)C4CC4)CC[C@@H]23)C[C@@H](O)C[C@@H]1O [MC903, Calcipotriol]
MC-induced TSLP expression in GRep-/- compared with WT mice (GRep-/- vs WT mice): more efficient | TSLP RNA level (WT mice, ears, topical MC903): increase
